Publication PMC3617838 (Journal of Experimental Botany, 2013)

Tests used:
LTP3 (LTP3-GST) = target: T1, LTP3 (LTP3-GST) (Arabidopsis thaliana, UniProt Q9LLR7); experiment: fluorescence titration; type: binding
T1 sequence (Q9LLR7 24-115): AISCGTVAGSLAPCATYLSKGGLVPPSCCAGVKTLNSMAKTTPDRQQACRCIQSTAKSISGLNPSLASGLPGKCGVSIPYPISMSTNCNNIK

[1] = target: T2, MYB96-His (Arabidopsis thaliana) (UniProt Q24JK1); experiment: EMSA; conditions: EMSA as in Shi et al. 2012; buffer, salt, pH and temperature not stated
T2 sequence: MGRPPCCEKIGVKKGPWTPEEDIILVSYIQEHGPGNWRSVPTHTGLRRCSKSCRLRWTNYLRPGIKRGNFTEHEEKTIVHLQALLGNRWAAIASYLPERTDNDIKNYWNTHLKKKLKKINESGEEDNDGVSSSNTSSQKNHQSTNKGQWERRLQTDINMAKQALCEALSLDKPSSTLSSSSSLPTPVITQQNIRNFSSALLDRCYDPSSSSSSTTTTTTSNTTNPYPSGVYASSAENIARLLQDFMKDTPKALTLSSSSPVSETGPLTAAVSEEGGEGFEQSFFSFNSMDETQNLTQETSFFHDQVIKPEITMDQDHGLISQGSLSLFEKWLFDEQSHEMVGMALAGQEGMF

## Cc1ccc(Nc2ccc3cc(S(=O)(=O)O)ccc3c2)cc1 [TNS, 2-p-toluidinonaphthalene-6-sulphonate]
LTP3 (LTP3-GST)
  Kd: 9.8 ± 4.7 µM

## CCACAGTTAATTAAAAGCAGATGAAAGGTGGTCCAATGGAAAAGGAGAATGTGATTGGGCTAGTTGGGAGAGTTCTGATGTCTAGTGTTGGGTACACGTGTCCGTCAGTTACACA (double strand) [LTP3 promoter XY]
[1]
  binding: binds
